This experiment concerns the target T1, muscarinic M3 receptor (Homo sapiens, UniProt P20309).
T1 construct: using HEK293 cells which express the receptor endogenously; endogenous in cells; host or cells: HEK293
The experiment is described as follows: Antagonist activity on muscarinic M3 receptor, FLIPR Tetra calcium assay in HEK293 cells. Type of experiment: cell-based. The settings on record: antagonist mode versus carbachol at its EC50, HEK293 cells, calcium fluorescence.

The IC50 is the concentration that inhibits the measured activity by half.

T1 sequence (P20309 whole entry): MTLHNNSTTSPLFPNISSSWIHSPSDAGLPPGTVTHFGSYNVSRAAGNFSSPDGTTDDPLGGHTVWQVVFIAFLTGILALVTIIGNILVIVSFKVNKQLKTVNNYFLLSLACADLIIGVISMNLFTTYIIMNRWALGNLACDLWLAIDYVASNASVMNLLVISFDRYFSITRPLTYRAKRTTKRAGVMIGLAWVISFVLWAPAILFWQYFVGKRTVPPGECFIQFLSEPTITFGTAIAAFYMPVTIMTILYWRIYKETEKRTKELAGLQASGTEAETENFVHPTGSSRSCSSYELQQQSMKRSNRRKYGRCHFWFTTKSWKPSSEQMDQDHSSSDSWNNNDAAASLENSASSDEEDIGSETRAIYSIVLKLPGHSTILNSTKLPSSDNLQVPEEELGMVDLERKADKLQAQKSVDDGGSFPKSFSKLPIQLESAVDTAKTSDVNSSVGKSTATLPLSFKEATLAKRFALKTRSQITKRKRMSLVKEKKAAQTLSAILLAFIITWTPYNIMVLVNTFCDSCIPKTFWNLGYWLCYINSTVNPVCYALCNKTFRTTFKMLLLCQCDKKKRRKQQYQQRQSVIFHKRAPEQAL

Consider Vitamin E [Vitamin E (as in Example 1)], for which the IC50 was >1 µg/mL.

(Values after patent US12109246B2, “Composition for the treatment and/or prevention of lower urinary tract symptoms” (SERELYS PHARMA S.A.M., priority 2019, dated 2024).)
